Data taken from patent US5985900A, “Metalloproteinase inhibitors, pharmaceutical compositions containing them and their pharmaceutical uses” (Agouron Pharmaceuticals, Inc., priority 1998, dated 1999).
Read-outs that look alike come from different tables or passages of the source.

Columns and labels:
[1] = target: human progelatinase A (GelA) (Homo sapiens, UniProt P08253); assay: In vitro MMP inhibition assay (hydrolysis of fluorogenic MCA peptide substrate), gelatinase A; assay type: biochemical
human progelatinase A (GelA), sequence (P08253 110-446 limits assumed): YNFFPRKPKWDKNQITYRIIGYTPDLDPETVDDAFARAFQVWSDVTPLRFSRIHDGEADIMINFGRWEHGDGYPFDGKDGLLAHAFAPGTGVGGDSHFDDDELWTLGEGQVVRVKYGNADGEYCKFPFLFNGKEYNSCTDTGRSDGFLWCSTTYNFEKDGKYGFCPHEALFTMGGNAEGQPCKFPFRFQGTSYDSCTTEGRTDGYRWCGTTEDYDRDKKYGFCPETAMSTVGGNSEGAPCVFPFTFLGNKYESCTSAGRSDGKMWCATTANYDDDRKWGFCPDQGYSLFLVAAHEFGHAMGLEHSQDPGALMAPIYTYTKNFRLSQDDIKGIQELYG
Procedure: The catalytic and fibronectin-like portion of human progelatinase A (GelA) was expressed as a fusion protein with ubiquitin in E. Coli. Assays were carried out on autocatalytically activated material.
(§1) Assays were performed in assay buffer (50 mM Tricine pH 7.5, 200 mM sodium chloride, 10 mM calcium chloride, 0.5 mM zinc acetate containing 2% dimethyl sulfoxide (DMSO)) once the substrate and inhibitor were diluted into it. Stock solutions of inhibitors were prepared in 100% DMSO. Stock solutions of the substrate were prepared in 100% DMSO at a concentration of 6 mM.
(§2) The assay method was based on the hydrolysis of MCA-Pro-Leu-Gly-Leu-DPA-Ala-Arg-NH2 (American Peptide Co.) at 37° C. (see Knight, C. G. et al., FEBS, 1992, 296, 263-266). The fluorescence changes were monitored with a Perkin-Elmer LS-50B fluorimeter using an excitation wavelength of 328 nm and an emission wavelength of 393 nm. The substrate concentration used in the assays was 10 μM. The inhibitor was diluted into the assays from a solution in 100% DMSO, and controls substituted an equal volume of DMSO so that the final DMSO concentration from inhibitor and substrate dilution in all assays was 2%. […] Proper determination of steady-state rates of substrate cleavage required assay lengths of 60 minutes to allow for complete equilibration of the enzyme-inhibitor complex.
(§3) The Km for the MCA peptide substrate with the matrix metalloproteinases is quite high and exceeds its solubility under assay conditions. Consequently, the apparent Ki (Ki,app) was determined to describe the strength of inhibition. However, in this case, Ki,app would be essentially equal to Ki since [S]<<Km. For the determination of Ki,app, the concentration of the inhibitor was varied at a constant and low concentration of substrate and the steady-state rates of fluorescence change determined. In most cases absorptive quench due to the presence of ligand was not observed. For slow-binding inhibitors, onset of inhibition curves were collected for at least 45 minutes so that equilibrium was established. Steady-state rates of fluorescence change were obtained by fitting a curve to an equation for a single exponential decay containing a linear phase. The fitted value of the linear phase was taken as the steady-state rate. The steady-state rates were fitted to the Michaelis equation describing competitive inhibition by non-linear methods. Data resulting from tight-binding inhibition was analyzed, and Ki,app determined by fitting the data to the tight-binding equation of Morrison (Biochem. Biophys. Acta, vol. 185, pp. 269-286 (1969)) by non-linear methods.
(§4) All Ki values are in nM units.

human stromelysin (Sln) = human stromelysin (Sln) (Homo sapiens, UniProt P08254); assay: In vitro MMP inhibition assay (hydrolysis of fluorogenic MCA peptide substrate), stromelysin; assay type: biochemical
human stromelysin (Sln), sequence (P08254 100-272 limits assumed): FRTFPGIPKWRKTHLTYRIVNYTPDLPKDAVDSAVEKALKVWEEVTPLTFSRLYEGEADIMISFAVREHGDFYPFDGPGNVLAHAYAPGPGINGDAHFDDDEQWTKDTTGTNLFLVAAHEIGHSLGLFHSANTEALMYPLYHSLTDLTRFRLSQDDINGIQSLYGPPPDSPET
Procedure: The catalytic domain of human stromelysin (Sln) was obtained by expression and purification of a C-terminally truncated prostromelysin-1 from E. coli host BL21 (see Marcy et al. Biochem., 1991, 30, 6476). The subsequent activation of the mature form (Sln) was completed with 2 mM APMA for 1 hour at 37° C., followed by separation using a sizing column.
as §1, §2, §3, §4

[2] = Table 1, Ki,app, MCA peptide substrate 10 μM, 37° C., pH 7.5, 2% DMSO, read-out: Gel A
[3] = Table 1, Ki,app, MCA peptide substrate 10 μM, 37° C., pH 7.5, 2% DMSO, read-out: Sin Ki

Ki [1, 2]	Ki (human stromelysin (Sln); [3])	Ki ([1]; Table 2, comparative example, gelatinase A, read-out: GELATINASE Kj)	Ki (human stromelysin (Sln); Table 2, comparative example, read-out: STROMELYSIN Ki)	SMILES
0.024 nM	0.63 nM			Cc1cc(CSC(C)(C)[C@@H](NS(=O)(=O)c2ccc(Oc3ccc(F)cc3)cc2)C(=O)NO)no1 [Example 9c, 2(S)--N-hydroxy-3-methyl-3-(5-methylisoxazol-3-yl)methylsulfanyl-2-[(4-(4-fluorophenoxy)benzenesulfonyl)amino]butanamide]
48 nM	2950 nM			CC(C)(SCc1ccccn1)[C@@H](NS(=O)(=O)c1ccc(Oc2ccc(C(F)(F)F)cc2)cc1)C(=O)O [Example 3j, N-[4-(4-(trifluoromethyl)phenoxy)benzenesulfonyl]--S--[(pyrid-2-yl)methyl]-D-penicillamine]
900 nM	348000 nM			CC(C)(O)[C@@H](NS(=O)(=O)c1ccc(Oc2ccc(Br)cc2)cc1)C(=O)O [Example 3s, N-[4-(4-Bromophenoxy)benzenesulfonyl]-D--(β-hydroxy)valine]
373 nM	12500 nM			CC(C)(SCCO)[C@@H](NS(=O)(=O)c1ccc(Oc2ccc(F)cc2)cc1)C(=O)O [Example 8a, S--[2-Hydroxyethyl]--N--[4-(4-fluorophenoxy)benzenesulfonyl]-D-penicillamine]
0.11 nM	0.2 nM			Cn1ccnc1CSC(C)(C)[C@@H](NS(=O)(=O)c1ccc(Oc2ccc(Br)cc2)cc1)C(=O)NO [Example 9n, 2(S)--N-hydroxy-3-methyl-3-(1-methyl-1H-imidazol-2-yl)-methylsulfanyl-2-[(4-(4-bromophenoxy)benzenesulfonyl)amino]butanamide]
		3500 nM	3400 nM	Cc1ccc(S(=O)(=O)NCC(=O)NO)cc1 [Compound 13, N-hydroxy-2-(toluene-4-sulfonylamino)acetamide, reference compound]
34 nM	2150 nM			Cn1ccnc1CSC(C)(C)[C@@H](NS(=O)(=O)c1ccc(Oc2ccc(Br)cc2)cc1)C(=O)O [Example 3o]
0.036 nM	0.73 nM			Cc1ccc(Oc2ccc(S(=O)(=O)N[C@@H](C(=O)NO)C(C)(C)SCc3ccccn3)cc2)cc1 [Example 9g, 2(S)--N-hydroxy-3-methyl-3-(pyrid-2-yl)methylsulfanyl-2-[(4-(4-methylphenoxy)benzenesulfonyl)amino]butanamide]
27 nM	751 nM			Cc1cc(CSC(C)(C)[C@@H](NS(=O)(=O)c2ccc(Oc3ccncc3)cc2)C(=O)O)no1 [Example 4b, S--[(5-Methylisoxazol-3-yl)methyl]--N--[4(pyrid-4-yl)oxybenzenesulfonyl]-D-penicillamine]
0.32 nM	11.4 nM			Cc1cc(CSC(C)(C)[C@@H](NS(=O)(=O)c2ccc(Oc3ccncc3)cc2)C(=O)NO)no1 [Example 10a, 2(S)--N-hydroxy-3-methyl-3-(5-methylisoxazol-3-yl)methylsulfanyl-2-[(4-(pyrid-4-yloxy)benzenesulfonyl)amino]butanamide]
334 nM	5700 nM			CC(C)(SCCC(N)=O)[C@@H](NS(=O)(=O)c1ccc(Oc2ccc(F)cc2)cc1)C(=O)O [Example 8b, S--[2-(Aminocarbonyl)ethyl]--N--[4-(4-fluorophenoxy)benzenesulfonyl]-D-penicillamine]
165 nM	10500 nM			COC(=O)CCSC(C)(C)[C@@H](NS(=O)(=O)c1ccc(Oc2ccc(F)cc2)cc1)C(=O)O [Example 7, S--[2-(Methoxycarbonyl)ethyl]--N--[4-(4-fluorophenoxy)benzenesulfonyl]-D-penicillamine]
